Converted amounts (≈) assume the structure as drawn.
Legend:
[1] = Penetration ratio, ratio of AUC (0 to 4 hrs) in Sprague-Dawley rat CSF to AUC (0 to 4 hrs) in Sprague-Dawley rat unbound plasma at […], sc; assay type: ADME, organism-based; parameters: dose 3.2 mg/kg, route subcutaneous; conditions: read-out: Ratio AUC
[2] = Penetration ratio, ratio of fAUC (0 to 4 hrs) in Sprague-Dawley rat brain to fAUC (0 to 4 hrs) in Sprague-Dawley rat plasma at […], sc; assay type: ADME, organism-based; parameters: dose 3.2 mg/kg, route subcutaneous
[3] = Solubility of compound at pH 6.6; assay type: physicochemical; conditions: buffer
[4] = Permeability of the compound by PAMPA; assay type: ADME; conditions: read-out: permeability
[5] = Permeability across dog RRCK cells; assay type: ADME, cell-based, Canis lupus familiaris, MDCKII-LE; conditions: MDCK, read-out: permeability
[6] = Solubility of compound at pH 5.5; assay type: physicochemical; conditions: buffer

Kp uu [1]: 1.2
Kp uu [2]: 1
solubility [3]: 0.11 mg/mL (≈ 295 µM)
Papp [4]: 190 nm/s
Papp [5]: 190 nm/s
solubility [6]: > 8.53 mg/mL
Compound: CC(C)CNCc1ccc(-c2ccccc2S(=O)(=O)N2CCCC2)cc1 [PF-04455242]
